IC50 data for ten molecules are collected here from US12398154B2, “Azaquinazoline pan-KRas inhibitors” (Mirati Therapeutics, Inc., priority 2020, dated 2025).

One assay concerns pERK in PSN1 cells. Briefly: Inhibition of KRas phosphorylation of ERK (Cisbio HTRF pERK assay). The conditions noted are these: Homo sapiens, PSN1, 3 h, read-out: Inhibition (HTRF IC50) of KRas-mediated Phosphorylation of ERK, PSN1. In general terms: In TR-FRET formats the signal depends on donor and acceptor labels being close together.
A further assay has as its system pERK in H727 cells. The assay is described as above. Conditions: Homo sapiens, NCI-H727, read-out: Inhibition (HTRF IC50) of KRas-mediated Phosphorylation of ERK, H727.
The next assay concerns pERK in A549 cells. The assay is described as above. The conditions noted are these: Homo sapiens, A549, read-out: Inhibition (HTRF IC50) of KRas-mediated Phosphorylation of ERK, A549.
For assay [1], the system named is phospho-ERK in AsPC-1 (G12D) cells. The experiment in a line: Inhibition of KRas-mediated phosphorylation of ERK (in-cell western). The conditions noted are these: Homo sapiens, ASPC1, 3 h, 3 hours compound, phospho-ERK normalized to GAPDH. The assay is classed as cell-based. In short, it runs like this: (§1)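 Following fixation in formaldehyde and permeabilization in cold methanol, ERK phosphorylated at Thr202/Tyr204 was quantified against GAPDH.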

For assay [2], the system named is phospho-ERK in MKN1 (WTdep) cells. The assay is described as above. Format: cell-based. The conditions noted are these: Homo sapiens, MKN-1, 3 hours compound, phospho-ERK normalized to GAPDH. In a few lines: as §1
The subject of assay [3] is phospho-ERK in HCT116 (G13D) cells. Described as above. Format: cell-based. The conditions noted are these: Homo sapiens, HCT-116, 3 hours compound, phospho-ERK normalized to GAPDH. In short, it runs like this: as §1
Assay [4] relates to phospho-ERK in NCI-H460 (Q61H) cells. The description is as above. Format: cell-based. The conditions noted are these: Homo sapiens, NCI-H460, 3 h, 3 hours compound, phospho-ERK normalized to GAPDH. In short, it runs like this:
as §1

The subject of assay [5] is phospho-ERK in PSN-1 (G12R) cells. The assay is described as above. Format: cell-based. The conditions noted are these: Homo sapiens, PSN1, 3 hours compound, phospho-ERK normalized to GAPDH. In short, it runs like this: as §1
The subject of assay [6] is phospho-ERK in A549 (G12S) cells. The assay is described as above. Conditions: Homo sapiens, 3 hours compound, phospho-ERK normalized to GAPDH. Format: cell-based. In a few lines:
as §1

The test system of assay [7] is phospho-ERK in NCI-H727 (G12V) cells. The assay is described as above. Format: cell-based. Conditions: Homo sapiens, NCI-H727, 3 h, 3 hours compound, phospho-ERK normalized to GAPDH. In a few lines: as §1
Another assay addresses KRas G12V (Homo sapiens, UniProt P01116, G12V). The experiment in a line: biochemical.
A further assay deals with pERK in HCT116 cells. Briefly: Inhibition of KRas phosphorylation of ERK (Cisbio HTRF pERK assay). The conditions noted are these: Homo sapiens, HCT-116, read-out: Inhibition (HTRF IC50) of KRas-mediated Phosphorylation of ERK, HCT116.
A further assay concerns pERK in H460 cells. The assay is described as above. The conditions noted are these: Homo sapiens, NCI-H460, read-out: Inhibition (HTRF IC50) of KRas-mediated Phosphorylation of ERK, H460.
For another assay, the target named is KRas G12D (Homo sapiens, UniProt P01116, G12D). The experiment in a line: biochemical.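 Further: TR-FRET displacement binding assay on KRas, read after a one-hour incubation at room temperature, IC50 fitted from percent-of-control values.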
Sequence of KRas G12D (P01116 1-169 isoform P01116-2 G12D): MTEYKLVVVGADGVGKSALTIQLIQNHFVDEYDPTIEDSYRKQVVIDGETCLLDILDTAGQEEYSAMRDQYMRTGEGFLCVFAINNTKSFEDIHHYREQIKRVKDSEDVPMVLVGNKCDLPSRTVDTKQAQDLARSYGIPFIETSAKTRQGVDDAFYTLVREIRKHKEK
A further assay concerns the target KRas G12R (Homo sapiens, UniProt P01116, G12R). Briefly: biochemical.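 Further: TR-FRET displacement assay of compound binding to KRas, read after one hour at room temperature, potency from a four-parameter fit of percent-of-control values.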
A further assay has as its system pERK in ASPC1 cells. The experiment in a line: Inhibition of KRas phosphorylation of ERK (Cisbio HTRF pERK assay). The conditions noted are these: Homo sapiens, ASPC1, read-out: Inhibition (HTRF IC50) of KRas-mediated Phosphorylation of ERK, AsPC-1.
A further assay relates to pERK in MKN1 cells. The assay is described as above. The conditions noted are these: Homo sapiens, MKN-1, 3 h, read-out: Inhibition (HTRF IC50) of KRas-mediated Phosphorylation of ERK, MKN1.
Assay [8] has as its system phospho-ERK in NCI-H358 (G12C) cells. Briefly: Inhibition of KRas-mediated phosphorylation of ERK (in-cell western). The assay is classed as cell-based. Conditions: Homo sapiens, 3 hours compound, phospho-ERK normalized to GAPDH. In short, it runs like this: as §1

Sequence of KRas G12R (P01116 1-169 isoform P01116-2 G12R): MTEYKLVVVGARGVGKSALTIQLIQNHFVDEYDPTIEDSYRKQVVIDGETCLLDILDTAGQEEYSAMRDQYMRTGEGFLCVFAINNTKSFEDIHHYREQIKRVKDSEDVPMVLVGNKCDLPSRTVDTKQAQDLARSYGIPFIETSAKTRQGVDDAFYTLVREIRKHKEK
Sequence of KRas G12V (P01116 1-169 isoform P01116-2 G12V): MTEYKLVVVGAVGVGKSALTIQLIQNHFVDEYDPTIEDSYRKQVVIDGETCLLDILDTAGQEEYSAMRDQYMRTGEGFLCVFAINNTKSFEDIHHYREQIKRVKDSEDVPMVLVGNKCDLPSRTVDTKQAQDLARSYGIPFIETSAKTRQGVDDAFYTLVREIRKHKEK

As a reminder, the IC50 is the concentration that inhibits the measured activity by half. Take `CCc1c(F)ccc2cc(O)cc(-c3ncc4c(N5C[C@@H]6C[C@H](C5)[C@H](O)C6)nc(OC[C@@]56CCCN5C[C@H](F)C6)nc4c3F)c12` (single isomer, unassigned) [Example 140]: the IC50 in the assay with pERK in PSN1 cells is 922 nM; with pERK in H727 cells it was 4 nM; with pERK in A549 cells it was 2 nM; in [1] it was 27 nM; in assay [2], 2 nM; in assay [3], 11 nM. The concentration for half-maximal inhibition (IC50) in assay [4] was 17 nM; in assay [5], 1 nM; in [6] it was 9 nM; in [7], 28 nM; at KRas G12V, no more than 2 nM; in the assay with pERK in HCT116 cells, 7 nM. The IC50 in the assay on pERK in H460 cells is 4 nM; at KRas G12D, no more than 2 nM; against KRas G12R, no more than 2 nM; with pERK in ASPC1 cells, 7 nM; in the assay on pERK in MKN1 cells it was 1 nM.

Take `CCc1c(F)ccc2cc(O)cc(-c3ncc4c(NC56CC(O)(C5)C6)nc(OC[C@@]56CCCN5C[C@H](F)C6)nc4c3F)c12` [Example 166]: the IC50 in [3] is no less than 10000 nM; in [8], 328 nM; in [5], no less than 10000 nM; in assay [6] it was no less than 10000 nM; in assay [7], no less than 10000 nM; on KRas G12V, no more than 2 nM. Also, the IC50 against KRas G12D was 7 nM; on KRas G12R, no more than 2 nM.

Take `CCc1c(F)ccc2cc(O)cc(-c3ncc4c(NC5CS(=O)(=O)C5)nc(OC[C@@]56CCCN5C[C@H](F)C6)nc4c3F)c12` [Example 168]: the half-maximal inhibitory concentration (IC50) is 821 nM in assay [3]; 156 nM in assay [8]; no less than 10000 nM in assay [5]; no less than 10000 nM in [6]; 1800 nM in assay [7]; no more than 2 nM against KRas G12V. For the same molecule, the IC50 is 5 nM at KRas G12D and no more than 2 nM against KRas G12R.

On to `CCc1c(F)ccc2cc(O)cc(-c3ncc4c(N5CCCC(CS(N)(=O)=O)C5)nc(OC[C@@]56CCCN5C[C@H](F)C6)nc4c3F)c12` (stereo partly shown) [Example 170], for which the IC50 in assay [3] is 2350 nM; in assay [8], 470 nM; in assay [5], no less than 10000 nM; in assay [6], no less than 10000 nM; in [7], 3400 nM; against KRas G12V it was no more than 2 nM. For the same molecule, the concentration for half-maximal inhibition (IC50) against KRas G12D and at KRas G12R was no more than 2 nM each time.

Turning to `CCc1c(F)ccc2cc(O)cc(-c3ncc4c(Nc5ccc6cn[nH]c6c5)nc(OC[C@@]56CCCN5C[C@H](F)C6)nc4c3F)c12` [Example 171, 4-(4-((1H-indazol-6-yl)amino)-8-fluoro-2-(((2R,7aS)-2-fluorohexahydro-1H-pyrrolizin-7a-yl)methoxy)pyrido[4,3-d]pyrimidin-7-yl)-5-ethyl-6-fluoronaphthalen-2-ol], the IC50 was no less than 10000 nM in assay [3]; no less than 10000 nM in [8]; no less than 10000 nM in assay [5]; no less than 10000 nM in assay [6]; no less than 10000 nM in assay [7]; 3 nM at KRas G12V. Also, the concentration for half-maximal inhibition (IC50) stood at 89 nM at KRas G12D and 9 nM against KRas G12R.

For the molecule `CCc1c(F)ccc2cc(O)cc(-c3ncc4c(Nc5ccc6cnn(C)c6c5)nc(OC[C@@]56CCCN5C[C@H](F)C6)nc4c3F)c12` [Example 174, 5-ethyl-6-fluoro-4-(8-fluoro-2-(((2R,7aS)-2-fluorohexahydro-1H-pyrrolizin-7a-yl)methoxy)-4-((1-methyl-1H-indazol-6-yl)amino)pyrido[4,3-d]pyrimidin-7-yl)naphthalen-2-ol], the half-maximal inhibitory concentration (IC50) in assay [3] was no less than 10000 nM; in assay [8], 1290 nM; in assay [5] it was no less than 10000 nM; in assay [6] it was 4950 nM; in assay [7] it was no less than 10000 nM; on KRas G12V, 4 nM. Besides, the half-maximal inhibitory concentration (IC50) is 89 nM against KRas G12D and 13 nM on KRas G12R.

With `CCc1c(F)ccc2cc(O)cc(-c3ncc4c(NCC5CS(=O)(=O)C5)nc(OC[C@@]56CCCN5C[C@H](F)C6)nc4c3F)c12` [Example 177], the IC50 in [3] is 1700 nM; in [8], 54 nM; in assay [5] it was no less than 10000 nM; in assay [6], 764 nM; in assay [7], no less than 10000 nM; against KRas G12V, no more than 2 nM. In addition, the IC50 against KRas G12D is 3 nM; against KRas G12R it was no more than 2 nM.

In the case of `CCc1c(F)ccc2cc(O)cc(-c3ncc4c(N5CCC[C@@H](O)C5)nc(OC[C@@]56CCCN5C[C@H](F)C6)nc4c3F)c12` [Example 193], the concentration for half-maximal inhibition (IC50) with pERK in PSN1 cells is 3790 nM; with pERK in H727 cells, 36 nM; in the assay on pERK in A549 cells, 44 nM; in assay [1] it was 94 nM; in assay [2] it was 4 nM; in [3] it was 63 nM. The IC50 in assay [4] turned out to be 44 nM; in [8] it was 41 nM; in assay [7], 133 nM; in the assay on pERK in HCT116 cells it was 82 nM; in the assay on pERK in H460 cells it was 42 nM; in the assay with pERK in ASPC1 cells it was 8 nM. Moreover, the IC50 with pERK in MKN1 cells came to 7 nM.

Regarding `CCc1c(F)ccc2cc(O)cc(-c3ncc4c(N5CCOC[C@@](C)(O)C5)nc(OC[C@@]56CCCN5C[C@H](F)C6)nc4c3F)c12` [Example 200], the IC50 in the assay on pERK in PSN1 cells is 1010 nM; in the assay with pERK in H727 cells, 6 nM; in the assay on pERK in A549 cells it was 5 nM; in [1] it was 47 nM; in assay [2], 3 nM; in assay [3], 21 nM. Besides, the IC50 in assay [4] was 22 nM; in assay [8], 13 nM; in assay [6], 3 nM; in [7], 67 nM; with pERK in HCT116 cells, 11 nM; with pERK in H460 cells, 5 nM. Further, the IC50 was determined as 3 nM in the assay with pERK in ASPC1 cells and 2 nM in the assay on pERK in MKN1 cells.

Consider `CCc1c(F)ccc2cc(O)cc(-c3ncc4c(N5CCCC(O)C5)nc(OC[C@@]56CCCN5C[C@H](F)C6)nc4c3F)c12` (stereo partly drawn) [Example 299, 1-(7-(8-ethyl-7-fluoro-3-hydroxynaphthalen-1-yl)-8-fluoro-2-(((2R,7aS)-2-fluorohexahydro-1H-pyrrolizin-7a-yl)methoxy)pyrido[4,3-d]pyrimidin-4-yl)piperidin-3-ol], for which the IC50 was 333 nM in [3]; 29 nM in assay [8]; no less than 10000 nM in [5]; 108 nM in assay [6]; 126 nM in assay [7].
